The values that follow come from patent publication US11883383B2, “Pharmaceutically acceptable salts of [3-(4- {2-butyl-1-[4-(4-chloro-phenoxy)-phenyl]-1H-imidazol-4-yl} -phenoxy)-propyl]-diethyl-amine” (vTv Therapeutics LLC, priority 2018, dated 2024).

What all share (format): physicochemical
Data set [1] can be described thus: Stoichiometry (acid/freebase) by 1H NMR or HPLC/IC. The text has this: Solution NMR was collected on Bruker 500M NMR Spectrometer using DMSO-d6 and CD3OD as solvents.
Agilent 1100 HPLC was utilized to analyze the purity and stoichiometry, with detailed method listed in below.
IC method for counter-ion content measurement is listed below.
(§1) All hits were further characterized by TGA and DSC, with the stoichiometry determined by ^1H NMR or HPLC/IC. Based on the characterization data in Table 2 below, most of them were considered to be anhydrates.

A short description of data set [2]: Thermogravimetric analysis (TGA) weight loss of crystalline hits. How it is done:
TGA data were collected using a TA Q500 and Q550 from TA Instruments. DSC was performed using a TA Q2000 from TA Instruments. DSC was calibrated with Indium reference standard and the TGA was calibrated using nickel reference standard.
as §1

A short description of data set [3]: Salt/co-crystal screening: 38 acids, eight solvent systems, solids analysed by XRPD. Conditions: acid/freebase charge 1:1 unless label says 2:1, stirred at RT, else 5° C. slurry, anti-solvent addition or evaporation (footnote marks). On the procedure:
XRPD analysis was performed with a Panalytical X'Pert^3 Powder XRPD on a Si zero-background holder. The 2θ position was calibrated against Panalytical Si reference standard disc.
A total of 320 salt/co-crystal screening experiments were conducted using 38 acids (two molar ratios for HCl and HBr) and eight solvent systems. Specifically, freebase stock solutions of ˜100 mg/mL were first prepared in each solvent system. For each experiment, 0.2 mL stock solution and the corresponding acids were mixed in a molar charge ratio of 1:1 (acid/freebase, 2:1 for HCl/freebase and HBr/freebase as well), and then stirred at RT. After stirring for 3-5 days, if precipitation was observed, the precipitate was isolated. It no precipitation, the clear solutions were first transferred to slurry at 5° C. to introduce precipitation. Solutions without any precipitation were further subjected to anti-solvent addition (for solvents in column B/D, 0.5 mL hexane was added; for solvents in column G/H, 0.5 mL water was added; for solvent in column F, 0.5 mL n-heptane was added). If still no precipitation, the final clear solutions were transferred to evaporation at RT to induce precipitation. All solids isolated were vacuum dried at RT for 2 hrs before XRPD analysis.

In the case of `CCCCc1nc(-c2ccc(OCCCN(CC)CC)cc2)cn1-c1ccc(Oc2ccc(Cl)cc2)cc1.O=C(O)c1cc(O)ccc1O` [Gentisate Type A], in data set [1], the “Stoichiometry (acid/base)” value is 1.01. Further, the “Speculated Form” value in data set [2] (based on TGA/DSC characterization data) is reported as “Hydrate”. In data set [2] (up to 120° C.), the “TGA Wt. Loss (%)” value is given as 1.8 up to %.
Turning to `O=C(O)C(=O)O` [Oxalic acid], the “Solid obtained in salt screening (XRPD), solvent G Methanol/H2O (19:1, v/v)” value (“Solid obtained in salt screening … (19:1, v/v)” for short) in data set [3] is recorded as “gel*”.
As for `Nc1ccc(C(=O)O)c(O)c1` [4-Aminosalicylic acid], in data set [3], the “Solid obtained in salt screening (XRPD), solvent D Acetone/Hexane (1:2, v/v)” value was “gel”; the “Solid obtained in salt screening (XRPD), solvent H Dioxane/H2O (9:1, v/v)” value (“Solid obtained in salt screening … (9:1, v/v)” for short) is “gel”; the “Solid obtained in salt screening (XRPD), solvent A Ethanol” value (from here on “Solid obtained … solvent A Ethanol”) is reported as “gel*”; the “Solid obtained in salt screening (XRPD), solvent C THF” value (shortened to “Solid obtained … solvent C THF”) is reported as “gel”. Besides, the “Solid obtained in salt screening (XRPD), solvent E Toluene” value (“Solid obtained … solvent E Toluene” for short) in data set [3] is on record as “gel”.
As for `O=C(O)[C@H](O)c1ccccc1` [R-mandelic acid], in data set [3], the “Solid obtained in salt screening (XRPD), solvent D Acetone/Hexane (1:2, v/v)” value is “gel”; the “Solid obtained in salt screening … (9:1, v/v)” value was “amorphous*”; the “Solid obtained … solvent A Ethanol” value is “amorphous*”; the “Solid obtained in salt screening (XRPD), solvent B Ethyl acetate/Hexane (1:2, v/v)” value is reported as “gel*”. Also, in data set [3], the “Solid obtained in salt screening … (19:1, v/v)” value is given as “amorphous*”; the “Solid obtained in salt screening (XRPD), solvent F Methyl tertbutyl ether” value is given as “gel”; the “Solid obtained … solvent C THF” value is “gel”; the “Solid obtained … solvent E Toluene” value is on record as “gel”.
For the compound `O=C(O)/C=C/C(=O)O` [Fumaric acid], in data set [3], the “Solid obtained in salt screening … (9:1, v/v)” value is “amorphous*”; the “Solid obtained … solvent A Ethanol” value is given as “gel*”; the “Solid obtained in salt screening … (19:1, v/v)” value is recorded as “amorphous*”; the “Solid obtained … solvent C THF” value is recorded as “gel*”.
As to `O=C(O)c1cccnc1` [Nicotinic acid], in data set [3], the “Solid obtained in salt screening … (9:1, v/v)” value is listed as “amorphous*”; the “Solid obtained … solvent A Ethanol” value is given as “gel*”; the “Solid obtained in salt screening (XRPD), solvent B Ethyl acetate/Hexane (1:2, v/v)” value is on record as “nicotinic acid”; the “Solid obtained in salt screening … (19:1, v/v)” value is “amorphous*”. In data set [3], the “Solid obtained in salt screening (XRPD), solvent F Methyl tertbutyl ether” value is listed as “nicotinic acid” and the “Solid obtained … solvent C THF” value is listed as “gel*”.
With `C[C@H](O)C(=O)O` [L-lactic acid], in data set [3], the “Solid obtained in salt screening (XRPD), solvent D Acetone/Hexane (1:2, v/v)” value is recorded as “gel”; the “Solid obtained in salt screening … (9:1, v/v)” value is “amorphous*”; the “Solid obtained … solvent A Ethanol” value was “amorphous*”; the “Solid obtained in salt screening (XRPD), solvent B Ethyl acetate/Hexane (1:2, v/v)” value is reported as “gel*”. For the same compound, in data set [3], the “Solid obtained in salt screening … (19:1, v/v)” value is recorded as “amorphous*”; the “Solid obtained in salt screening (XRPD), solvent F Methyl tertbutyl ether” value is on record as “gel”; the “Solid obtained … solvent C THF” value is recorded as “gel”; the “Solid obtained … solvent E Toluene” value is “gel*”.
As to `O=C(O)CC(O)(CC(=O)O)C(=O)O` [Citric acid], in data set [3], the “Solid obtained in salt screening … (9:1, v/v)” value was “amorphous*”; the “Solid obtained … solvent A Ethanol” value was “gel*”; the “Solid obtained in salt screening … (19:1, v/v)” value is listed as “amorphous*”; the “Solid obtained in salt screening (XRPD), solvent F Methyl tertbutyl ether” value is “amorphous”. In data set [3], the “Solid obtained … solvent C THF” value was “amorphous^#” and the “Solid obtained … solvent E Toluene” value is listed as “amorphous”.
For `CCCCCC(=O)O` [Hexanoic acid], in data set [3], the “Solid obtained in salt screening (XRPD), solvent D Acetone/Hexane (1:2, v/v)” value is recorded as “gel*”; the “Solid obtained in salt screening … (9:1, v/v)” value is on record as “FB Type A*”; the “Solid obtained … solvent A Ethanol” value was “gel”; the “Solid obtained in salt screening (XRPD), solvent B Ethyl acetate/Hexane (1:2, v/v)” value is listed as “gel*”. Further, in data set [3], the “Solid obtained in salt screening … (19:1, v/v)” value is given as “amorphous*”; the “Solid obtained in salt screening (XRPD), solvent F Methyl tertbutyl ether” value is listed as “FB Type B^&”; the “Solid obtained … solvent C THF” value is “gel”; the “Solid obtained … solvent E Toluene” value is on record as “gel”.
On to `O=C(O)c1ccc2ccccc2c1O` [1-hydroxy-2-naphthoic acid], for which, in data set [3], the “Solid obtained in salt screening (XRPD), solvent D Acetone/Hexane (1:2, v/v)” value is listed as “gel”; the “Solid obtained in salt screening … (9:1, v/v)” value is listed as “amorphous*”; the “Solid obtained … solvent A Ethanol” value was “amorphous*”; the “Solid obtained in salt screening (XRPD), solvent B Ethyl acetate/Hexane (1:2, v/v)” value is recorded as “gel*”. For the same compound, in data set [3], the “Solid obtained in salt screening … (19:1, v/v)” value is on record as “amorphous*”; the “Solid obtained in salt screening (XRPD), solvent F Methyl tertbutyl ether” value is “gel”; the “Solid obtained … solvent C THF” value is recorded as “gel”; the “Solid obtained … solvent E Toluene” value is given as “gel”.
As to `O=C(O)C[C@H](O)C(=O)O` [L-malic acid], in data set [3], the “Solid obtained in salt screening (XRPD), solvent D Acetone/Hexane (1:2, v/v)” value is “gel”; the “Solid obtained in salt screening … (9:1, v/v)” value is recorded as “amorphous*”; the “Solid obtained … solvent A Ethanol” value is “amorphous*”; the “Solid obtained in salt screening … (19:1, v/v)” value was “amorphous*”. Further, in data set [3], the “Solid obtained … solvent C THF” value is listed as “gel” and the “Solid obtained … solvent E Toluene” value is “gel”.
For the compound `O=C(O)c1ccccc1` [Benzoic acid], in data set [3], the “Solid obtained in salt screening (XRPD), solvent D Acetone/Hexane (1:2, v/v)” value is “gel*”; the “Solid obtained in salt screening … (9:1, v/v)” value was “amorphous*”; the “Solid obtained … solvent A Ethanol” value is on record as “gel*”; the “Solid obtained in salt screening (XRPD), solvent B Ethyl acetate/Hexane (1:2, v/v)” value is on record as “gel*”. In addition, in data set [3], the “Solid obtained in salt screening … (19:1, v/v)” value is given as “amorphous*”; the “Solid obtained in salt screening (XRPD), solvent F Methyl tertbutyl ether” value is “amorphous*”; the “Solid obtained … solvent C THF” value is “gel*”; the “Solid obtained … solvent E Toluene” value is recorded as “gel*”.
For `O=C(O)CCCCC(=O)O` [Adipic acid], in data set [3], the “Solid obtained in salt screening (XRPD), solvent D Acetone/Hexane (1:2, v/v)” value was “FB Type B*”; the “Solid obtained in salt screening … (9:1, v/v)” value is “amorphous*”; the “Solid obtained … solvent A Ethanol” value is reported as “gel*”; the “Solid obtained in salt screening (XRPD), solvent B Ethyl acetate/Hexane (1:2, v/v)” value is listed as “amorphous*”. Besides, in data set [3], the “Solid obtained in salt screening … (19:1, v/v)” value is “amorphous*”; the “Solid obtained in salt screening (XRPD), solvent F Methyl tertbutyl ether” value is “amorphous*”; the “Solid obtained … solvent C THF” value was “gel*”; the “Solid obtained … solvent E Toluene” value was “gel*”.
On to `COc1cc(C=O)ccc1O` [Vanillin], for which, in data set [3], the “Solid obtained in salt screening (XRPD), solvent D Acetone/Hexane (1:2, v/v)” value is given as “gel*”; the “Solid obtained in salt screening … (9:1, v/v)” value is on record as “FB Type A^&”; the “Solid obtained … solvent A Ethanol” value was “gel*”; the “Solid obtained in salt screening (XRPD), solvent B Ethyl acetate/Hexane (1:2, v/v)” value is reported as “gel*”. Further, in data set [3], the “Solid obtained in salt screening … (19:1, v/v)” value was “amorphous^&”; the “Solid obtained in salt screening (XRPD), solvent F Methyl tertbutyl ether” value is reported as “amorphous*”; the “Solid obtained … solvent C THF” value was “gel”; the “Solid obtained … solvent E Toluene” value is recorded as “gel”.
With `Br.CCCCc1nc(-c2ccc(OCCCN(CC)CC)cc2)cn1-c1ccc(Oc2ccc(Cl)cc2)cc1` [HBr (1:1)], the “Solid obtained in salt screening … (9:1, v/v)” value in data set [3] was “gel*”.
Consider `O=C(O)c1cc(O)ccc1O` [Gentisic acid], for which, in data set [3], the “Solid obtained … solvent A Ethanol” value is “gel*” and the “Solid obtained … solvent C THF” value is “gel*”.
Turning to `O=C(O)c1ccccc1O` [Salicyclic acid], in data set [3], the “Solid obtained in salt screening (XRPD), solvent D Acetone/Hexane (1:2, v/v)” value is “amorphous*”; the “Solid obtained in salt screening … (9:1, v/v)” value is “amorphous*”; the “Solid obtained … solvent A Ethanol” value is reported as “gel*”; the “Solid obtained in salt screening (XRPD), solvent B Ethyl acetate/Hexane (1:2, v/v)” value was “amorphous*”. Further, in data set [3], the “Solid obtained in salt screening … (19:1, v/v)” value is “amorphous*”; the “Solid obtained in salt screening (XRPD), solvent F Methyl tertbutyl ether” value is given as “amorphous^&”; the “Solid obtained … solvent C THF” value is “gel*”; the “Solid obtained … solvent E Toluene” value is “gel*”.
Take `N[C@@H](CCC(=O)O)C(=O)O` [Glutamic acid]: in data set [3], the “Solid obtained in salt screening … (9:1, v/v)” value is listed as “glutamic acid”; the “Solid obtained … solvent A Ethanol” value is on record as “glutamic acid”; the “Solid obtained in salt screening (XRPD), solvent F Methyl tertbutyl ether” value is “glutamic acid”.
